Experimental findings from patent publication US11312709B2, “Ghrelin O-acyltransferase inhibitors” (Glaxosmithkline Intellectual Property Development Limited, priority 2018, dated 2022) are described below.

One experiment addresses human GOAT (Homo sapiens (Human), UniProt Q96T53). Nature of the experiment: GOAT TR-FRET (HTRF) inhibition assay, 384-well. The experiment is classed as biochemical. The conditions noted are these: His-tag human GOAT membrane preparation from sf9 cells; read-out: hGOAT IC50. As to the method:
Compounds contained herein were evaluated for their ability to inhibit the activity of GOAT. GOAT activity was assessed using a time-resolved fluorescence energy transfer (TR-FRET) assay in a 384-well format. His-tag human GOAT enzyme was in the form of a cell membrane preparation from sf9 cells infected with hGOAT-V5-His baculovirus. Varying concentrations of test compound with final DMSO concentration kept to 0.5% were added to membrane solution. Human GOAT membrane activity was established in a buffer having final concentration 0.25 mg/mL in 50 mM MOPS, pH7.5; 50 mM KCl; 0.1 mg/mL BSA; 50 μM CHAPS; and 2 mM EDTA. Substrate solution consisting of biotinylated ghrelin peptide (final concentration 100 nM), octanoyl coA (final concentration 2 μM) and palmitoyl CoA (final concentration 50 μM) was added to initiate the reaction. Plates were sealed, centrifuged for 1 minute at 2000 rpm, then incubated at 30° C. for 80 minutes with gentle shaking on an Eppendorf mix plate. Reaction termination and detection mix consisting of chicken anti-active ghrelin antibody (final concentration of 10 nM), Europium W1024-labeled streptavidin (final concentration of 4 nM), GOAT anti-chicken Dylight (final concentration of 12.5 nM), and GS[DAP-oc]-FL-amide inhibitor (final concentration of 1 μM) was added before further incubation for 40 minutes at 30° C. The plate was then read on an Envision in HTRF mode with excitation filter UV (TRF) 340 and first emission filter of APC 665 and a second emission filter of Europium 615. HTRF readings were acquired as per instrument defined LANCE-DELFIA protocol with a delay and window times of 50 μs for both; number of sequential windows: 1; time between flashes: 2000 μs between each of 100 flashes and 10 flashes for the second detector. The HTRF ratio was calculated directly by the instrument as the ratio of 665 window/615 window. Percent inhibition was calculated as 100−(100×(U−NC)/(PC−NC)) where U was the unknown value HTRF ratio (test compound value), NC was the negative control (100% inhibition value generated from a potent inhibitor), and PC was the positive control (100% activity generated from 0.5% DMSO vehicle). IC50 values were generated in GraphPad Prism (Version 4.03) using non-linear regression curve fit and sigmoidal dose response variable slope analysis.

For experiment [1], the system named is acyl ghrelin. Nature of the experiment: Acyl ghrelin reduction in mice on a high fat, high carb diet. The experiment is classed as in vivo, male C57BL/6 mice. The conditions noted are these: HFHC diet; for reduction in acyl ghrelin levels compared to Rimonabant followed by vehicle: statistically significant. As to the method:
Normal mice were acclimated to individual housing for two weeks on normal chow diet (20% calories from protein, 35% from carbohydrate, and 45% from fat). All mice except a control group were then switched to a high fat, high carb (HFHC) diet to cause obesity. Mice on the HFHC diet were administered 3 mg/kg Rimonabant once daily for seven days to cause weight loss except for one group that initiated 10 mg/kg Example 1a immediately. Mice that had been treated with Rimonabant were then administered various treatments in the evening for 21 days: vehicle, 3 mg/kg Rimonabant, or 10 mg/kg Example 1a. Mice were fasted overnight and administered a final treatment in the morning. Three hours later, blood was collected for plasma acyl ghrelin and des-acyl ghrelin determination.

For experiment [2], the system named is acyl ghrelin. Nature of the experiment: Acyl ghrelin reduction in rats (fasting induced). The conditions noted are these: 10 mg/kg, same design as mice. The experiment is classed as in vivo, male SD rats. As to the method: (§1) Normal mice were administered various oral doses of Example 1a on a bid basis for two days (4 doses). Food was withdrawn the evening of the second day after the fourth dose, and then the animals were administered a final dose the morning of the third day. Three hours after this fifth and final dose, blood was collected for ghrelin and acyl ghrelin measurement by ELISA.
The same experimental design was conducted in rats administered 10 mg/kg of Example 1a.

Experiment [3] concerns acyl ghrelin. The experiment can be described thus: Single-dose PK/PD study, acyl ghrelin reduction in cynomolgus monkeys. The conditions noted are these: single oral dose 10 mg/kg, over the first 24 hours, fasted. The experiment is classed as in vivo. The procedure: A single-dose PK/PD study was conducted in cynomolgus monkeys after a 10 mg/kg dose of Example 1a. On day zero, after an overnight fast, three monkeys were administered an oral dose of vehicle, and blood was collected pre-dose and 1, 3, 8, and 24 hours later. The 24 hour time point served as the pre-dose measurement for day 1 when, after an overnight fast, the monkeys were administered a single oral dose of 10 mg/kg Example 1a. Blood was collected at various time points (15 minutes, 30 minutes, 1 hour, 3 hours, 8 hours, 24 hours, 48 hours, 96 hours, and 168 hours) with overnight fasting throughout the study.

Experiment [4] relates to acyl ghrelin. Nature of the experiment: Acyl ghrelin reduction in mice (fasting induced). It is filed as in vivo. The conditions noted are these: 5 doses; for acyl ghrelin reduction: 3 h after final dose, p<0.05. As to the method:
as §1

The mark [5] stands for this setting: normal mice, various oral doses bid, blood 3 h after final dose, fasted, ELISA.
The mark [6] stands for this setting: continuous treatment with 10 mg/kg Example 1a.

SMILES strings stand for the structures.

human GOAT, sequence (Q96T53 whole entry): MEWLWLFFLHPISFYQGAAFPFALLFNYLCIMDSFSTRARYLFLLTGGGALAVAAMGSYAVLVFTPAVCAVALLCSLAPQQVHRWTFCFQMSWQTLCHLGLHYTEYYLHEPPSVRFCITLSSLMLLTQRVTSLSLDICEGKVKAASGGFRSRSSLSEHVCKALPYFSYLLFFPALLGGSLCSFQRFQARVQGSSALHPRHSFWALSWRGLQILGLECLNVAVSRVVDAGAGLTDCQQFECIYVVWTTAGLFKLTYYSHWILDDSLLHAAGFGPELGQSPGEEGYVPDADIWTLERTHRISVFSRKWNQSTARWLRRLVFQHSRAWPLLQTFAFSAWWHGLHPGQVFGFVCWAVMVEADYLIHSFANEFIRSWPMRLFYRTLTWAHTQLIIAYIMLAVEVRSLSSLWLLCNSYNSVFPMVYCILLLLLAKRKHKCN

The term IC50 denotes the point on the concentration scale where inhibition reaches its midpoint. In the case of `Cc1ccc2c(n1)CC[C@@H]2Oc1cc(Cl)c2c(CC(=O)O)csc2c1` [Example 2a, (S)-2-(4-chloro-6-((2-methyl-6,7-dihydro-5H-cyclopenta[b]pyridin-5-yl)oxy)benzo[b]thiophen-3-yl)acetic acid], the 50% inhibitory concentration (IC50) at human GOAT was less than 50 nM.
For the compound `NC(=O)c1ccc2c(n1)CC[C@@H]2Oc1cc(Cl)c2c(CC(=O)O)csc2c1` [Example 9a], the IC50 at human GOAT was less than 500 nM.
Same read-out and setting: the result for `NC(=O)c1ccc2c(n1)CC[C@H]2Oc1cc(Cl)c2c(CC(=O)O)csc2c1` [Example 9b] reads less than 50 nM; that for `O=C(O)Cc1csc2cc(O[C@@H]3CCc4ncccc43)cc(Cl)c12` [Example 1b, (R)-2-(4-chloro-6-((6,7-dihydro-5H-cyclopenta[b]pyridin-5-yl)oxy)benzo[b]thiophen-3-yl)acetic acid], less than 5000 nM; that for `O=C(O)Cc1csc2c(Cl)c(O[C@@H]3CCc4nc(Cl)ccc43)cc(Cl)c12` [Example 3b], less than 50 nM.
Consider `Cc1ccc2c(n1)CC[C@H]2Oc1cc(Cl)c2c(CC(=O)O)csc2c1` [Example 2b, (R)-2-(4-chloro-6-((2-methyl-6,7-dihydro-5H-cyclopenta[b]pyridin-5-yl)oxy)benzo[b]thiophen-3-yl)acetic acid], for which the IC50 on human GOAT is less than 5000 nM.
For the compound `N#Cc1ccc2c(n1)CCC2Oc1cc(Cl)c2c(CC(=O)O)csc2c1` (racemic) [Example 8, 2-(4-chloro-6-((2-cyano-6,7-dihydro-5H-cyclopenta[b]pyridin-5-yl)oxy)benzo[b]thiophen-3-yl)acetic Acid], the half-inhibitory concentration (IC50) at human GOAT is less than 50 nM.
Still for that read-out and setting: the result for `O=C(O)Cc1csc2c(F)c(O[C@H]3COc4nc(C(F)(F)F)ccc43)cc(Cl)c12` [Example 5a] reads less than 5000 nM; that for `O=C(O)Cc1csc2cc(O[C@@H]3COc4ncccc43)cc(Cl)c12` [Example 6b], less than 50 nM.
As for `O=C(O)Cc1csc2c(F)c(O[C@@H]3COc4nc(C(F)(F)F)ccc43)cc(Cl)c12` [Example 5b], the IC50 on human GOAT was less than 50 nM.
On to `O=C(O)Cc1csc2c(Cl)c(O[C@H]3CCc4nc(Cl)ccc43)cc(Cl)c12` [Example 3a], for which the IC50 at human GOAT was less than 500 nM.
Turning to `Cc1c(C(=O)NN2CCCCC2)nn(-c2ccc(Cl)cc2Cl)c1-c1ccc(Cl)cc1` [Rimonabant, reference compound], the “acyl ghrelin levels (so in the source); context is des-acyl ghrelin, FIG. 8)” value in the experiment on acyl ghrelin [1] (3 mg/kg Rimonabant treatment alone, not as much as with Example 1a) was “increased”.
For `O=C(O)Cc1csc2cc(O[C@H]3COc4ncccc43)cc(Cl)c12` [Example 6a], on human GOAT, the IC50 was less than 50 nM.
As for `O=C(O)Cc1csc2c(Cl)c(O[C@H]3COc4ncccc43)cc(Cl)c12` [Example 7a], the IC50 on human GOAT was less than 5000 nM.
The same measure, in the same setting: the result for `O=C(O)Cc1csc2c(Cl)c(O[C@@H]3CCc4nc(C(F)(F)F)ccc43)cc(Cl)c12` [Example 4b] reads less than 50 nM; that for `O=C(O)Cc1csc2c(Cl)c(O[C@@H]3COc4ncccc43)cc(Cl)c12` [Example 7b], less than 50 nM.
On to `O=C(O)Cc1csc2cc(O[C@H]3CCc4ncccc43)cc(Cl)c12` [Example 1a, (S)-2-(4-chloro-6-((6,7-dihydro-5H-cyclopenta[b]pyridin-5-yl)oxy)benzo[b]thiophen-3-yl)acetic Acid], for which, in the experiment on acyl ghrelin [2], the acyl ghrelin levels entry is reported as “significantly reduced” and the des-acyl ghrelin levels result was “increased”. Moreover, the “reduction in the acyl ghrelin AUC relative to vehicle treatment” value with acyl ghrelin [3] is given as 51%. In addition, the acyl ghrelin reduction result in the experiment on acyl ghrelin [4] (1 mg/kg oral bid) is reported as “statistically significant”. In addition, in the experiment on acyl ghrelin [4] (10 mg/kg oral bid), the acyl ghrelin reduction result is “statistically significant”. In addition, in the experiment with acyl ghrelin [4] (setting [5]), the “acyl ghrelin (dose response)” value is “Dose-dependent decreases” and the “des-acyl ghrelin (dose response)” value is on record as “increases”. The “reduction in acyl ghrelin levels compared to Rimonabant followed by vehicle” value with acyl ghrelin [1] (10 mg/kg Example 1a for 21 days after 7 days of 3 mg/kg Rimonabant) is 61%. Further, in the experiment with acyl ghrelin [1] (both Example 1a treatments (10 mg/kg)), the “des-acyl ghrelin levels relative to Rimonabant followed by vehicle treatment” value was “statistically significantly elevated”. For the same compound, in the experiment on acyl ghrelin [1] (setting [6]), the “reduction in acyl ghrelin compared to vehicle treatment alone” value is 28% and the “reduction in acyl ghrelin levels compared to Rimonabant followed by vehicle” value turned out to be 57%. Moreover, the IC50 on human GOAT was less than 50 nM.
For the compound `O=C(O)Cc1csc2c(Cl)c(O[C@H]3CCc4nc(C(F)(F)F)ccc43)cc(Cl)c12` [Example 4a], at human GOAT, the IC50 is less than 500 nM.
